Data: the supplement of paper PMC10307832

How the values were obtained:
Assay in all cases: relative viability (nuclei count vs DMSO), 5 days (fraction); higher = more cells survive
AZ628 + Lapatinib = compound: CC1=C(C=C(C=C1)NC(=O)C2=CC(=CC=C2)C(C)(C)C#N)NC3=CC4=C(C=C3)N=CN(C4=O)C [AZ628] + CS(=O)(=O)CCNCc1ccc(-c2ccc3ncnc(Nc4ccc(OCc5cccc(F)c5)c(Cl)c4)c3c2)o1 [Lapatinib] (partner 2 µM)
Method in brief: (§1)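 One day after seeding in 1536-well plates, lung cancer cell lines were dosed by pin tool. Dosing was either single-drug or a fixed anchor-drug dose plus five library-drug doses (not always all listed) in √10 steps. After 5 days, nuclei were stained in one fix-and-stain step and counted on 4× images, and relative viability is the nuclei count of treated wells over that of vehicle wells, given as the median of duplicate plates.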

QS11 + Olaparib = compound: C1CC2=C(C1)C=C(C=C2)OC3=NC(=C4C(=N3)N(C=N4)CC5=CC=C(C=C5)C6=CC=CC=C6)N[C@@H](CC7=CC=CC=C7)CO [QS11] + O=C(c1cc(Cc2n[nH]c(=O)c3ccccc23)ccc1F)N1CCN(C(=O)C2CC2)CC1 [Olaparib] (partner 8 µM)
Method in brief: as §1

AZ628 + Trametinib = compound: CC1=C(C=C(C=C1)NC(=O)C2=CC(=CC=C2)C(C)(C)C#N)NC3=CC4=C(C=C3)N=CN(C4=O)C [AZ628] + CC(=O)Nc1cccc(-n2c(=O)n(C3CC3)c(=O)c3c(Nc4ccc(I)cc4F)n(C)c(=O)c(C)c32)c1 [Trametinib] (partner 0.02 µM)
Method in brief: as §1

QS11 + Alpelisib = compound: C1CC2=C(C1)C=C(C=C2)OC3=NC(=C4C(=N3)N(C=N4)CC5=CC=C(C=C5)C6=CC=CC=C6)N[C@@H](CC7=CC=CC=C7)CO [QS11] + Cc1nc(NC(=O)N2CCC[C@H]2C(N)=O)sc1-c1ccnc(C(C)(C)C(F)(F)F)c1 [Alpelisib] (partner 2 µM)
Method in brief: as §1

| Cell Line | relative viability (AZ628 + Lapatinib; first compound 0.08 µM) | relative viability (AZ628 + Lapatinib; first compound 0.253 µM) | relative viability (AZ628 + Lapatinib; first compound 0.8 µM) | relative viability (AZ628 + Lapatinib; first compound 2.53 µM) | relative viability (AZ628 + Lapatinib; first compound 8 µM) | relative viability (QS11 + Olaparib; first compound 0.08 µM) | relative viability (QS11 + Olaparib; first compound 0.253 µM) | relative viability (QS11 + Olaparib; first compound 0.8 µM) | relative viability (QS11 + Olaparib; first compound 2.53 µM) | relative viability (QS11 + Olaparib; first compound 8 µM) | relative viability (AZ628 + Trametinib; first compound 0.08 µM) | relative viability (AZ628 + Trametinib; first compound 0.253 µM) | relative viability (AZ628 + Trametinib; first compound 0.8 µM) | relative viability (AZ628 + Trametinib; first compound 2.53 µM) | relative viability (AZ628 + Trametinib; first compound 8 µM) | relative viability (QS11 + Alpelisib; first compound 0.08 µM) | relative viability (QS11 + Alpelisib; first compound 0.253 µM) | relative viability (QS11 + Alpelisib; first compound 0.8 µM) | relative viability (QS11 + Alpelisib; first compound 2.53 µM) | relative viability (QS11 + Alpelisib; first compound 8 µM) |
| --- | --- | --- | --- | --- | --- | --- | --- | --- | --- | --- | --- | --- | --- | --- | --- | --- | --- | --- | --- | --- |
| 201T | 1.01 | 0.988 | 1.06 | 1.12 | 1.18 | 0.876 | 1.05 | 0.699 | 0.898 | 0.718 | 0.709 | 0.693 | 0.71 | 0.667 | 0.561 | 1.02 | 1.07 | 0.92 | 1.08 | 0.949 |
| A549 | 1.13 | 0.839 | 0.676 | 0.835 | 0.536 | 0.197 | 0.339 | 0.37 | 0.284 | 0.574 | – | – | – | – | – | 0.912 | 0.757 | 0.691 | 0.451 | 0.215 |
| A-427 | 1.1 | 0.599 | 0.99 | 1.06 | 0.773 | 0.756 | 0.67 | – | 0.656 | 0.559 | 0.462 | 0.407 | 0.353 | 0.395 | 0.407 | 1.03 | 1.16 | – | 1.06 | 1.11 |
| ABC-1 | 1.04 | 1.09 | 1.08 | 1.16 | 0.985 | 0.655 | 0.833 | 0.85 | 0.563 | 1.04 | – | – | – | – | – | 0.89 | 1.02 | 0.932 | 0.945 | 1.21 |
| BEN | 0.775 | 0.554 | 0.661 | 0.815 | 0.545 | 0.667 | 1.1 | 1.03 | 1.01 | 0.992 | 1.12 | 1.01 | 0.806 | 1.02 | 0.783 | 0.772 | 1.22 | 1.12 | 1.01 | 1.29 |
| CAL-12T | 0.884 | – | 0.599 | 0.616 | 0.573 | 0.722 | 0.693 | 0.67 | 0.727 | 0.603 | 0.295 | 0.248 | 0.259 | 0.193 | 0.305 | 1.28 | 1.13 | 1.25 | 0.952 | 1.06 |
| COR-L23 | 1.11 | 1.05 | 1.04 | 0.968 | 0.683 | 0.302 | 0.322 | 0.303 | 0.271 | 0.288 | 0.292 | 0.237 | 0.271 | 0.211 | 0.271 | 0.828 | 0.665 | 0.698 | 0.589 | 0.617 |
| COR-L 105 | 0.413 | 0.391 | 0.366 | 0.32 | 0.4 | 0.764 | 0.56 | 0.674 | 0.716 | 0.66 | 0.435 | 0.401 | 0.382 | 0.352 | 0.36 | 0.931 | 0.946 | 1.13 | 0.745 | 0.771 |
| Calu-6 | 1.2 | 0.981 | 0.629 | 0.844 | 0.222 | 0.626 | 0.613 | 0.603 | 0.638 | 0.59 | – | – | – | – | – | 0.98 | 0.974 | 0.856 | 0.99 | 0.884 |
| ChaGo-K-1 | – | – | – | – | – | – | 0.448 | 0.352 | 0.397 | 0.387 | 0.911 | 0.879 | 0.881 | 0.873 | 0.839 | – | – | – | – | – |
| EBC-1 | 0.219 | 0.205 | 0.251 | 0.22 | 0.199 | 0.758 | 0.813 | 0.675 | 0.644 | 0.68 | – | – | – | – | – | 0.932 | 0.77 | 0.76 | 0.816 | 0.667 |
| EKVX | 0.232 | 0.206 | 0.216 | 0.219 | 0.257 | 0.829 | 0.768 | 0.715 | 0.822 | 1.01 | 0.368 | 0.227 | 0.248 | 0.273 | 0.195 | 0.895 | 0.821 | – | 0.86 | 0.906 |
| EMC-BAC-2 | 0.9 | 0.853 | 0.817 | 0.844 | 0.933 | 0.461 | 0.492 | 0.464 | 0.492 | 0.44 | 0.588 | 0.442 | 0.416 | 0.365 | 0.43 | 0.802 | 0.698 | 0.887 | 0.759 | 0.594 |
| EPLC-272H | 0.837 | 0.88 | 1.08 | 0.932 | 0.54 | 0.707 | 0.888 | 0.716 | 0.808 | 0.505 | 0.26 | 0.207 | 0.222 | 0.189 | 0.17 | 0.931 | 0.934 | 1.04 | 1.04 | 1.1 |
| H3255 | 0.258 | 0.256 | 0.292 | 0.269 | 0.251 | 0.548 | 0.588 | 0.456 | 0.567 | 0.534 | 0.525 | 0.413 | 0.384 | 0.401 | 0.365 | 0.782 | 0.773 | – | 0.671 | 0.903 |
